From the NIST ThermoML archive (doi:10.1021/acs.jced.5b00348)
± gives the expanded uncertainty stated by the source.

Conditions: for mass density / vapor or sublimation pressure: Liquid; for vapor or sublimation pressure: Closed cell (Static) method; for speed of sound: Gas

FC(F)(F)/C=C/Cl [(E)-1-chloro-3,3,3-trifluoroprop-1-ene]
Conditions | mass density [kg/m3] | speed of sound [m/s]
215.01 K, 1815.3 kPa | 1449.31 ± 0.36 | –
220 K, 1921.7 kPa | 1439.12 ± 0.33 | –
220 K, 8321.7 kPa | 1447.77 ± 0.33 | –
225 K, 8257.8 kPa | 1437.64 ± 0.33 | –
230 K, 14558 kPa | 1436.27 ± 0.35 | –
235 K, 1363.6 kPa | 1406.94 ± 0.32 | –
235 K, 5155.5 kPa | 1412.84 ± 0.32 | –
235 K, 10102 kPa | 1420.19 ± 0.32 | –
235 K, 15131 kPa | 1427.32 ± 0.32 | –
235 K, 20809 kPa | 1434.98 ± 0.35 | –
240 K, 7088 kPa | 1405.56 ± 0.32 | –
245 K, 12803 kPa | 1404.29 ± 0.32 | –
250 K, 18468 kPa | 1403.09 ± 0.32 | –
255 K, 1176.9 kPa | 1363.85 ± 0.31 | –
255 K, 5115 kPa | 1371.16 ± 0.31 | –
255 K, 10377 kPa | 1380.36 ± 0.31 | –
255 K, 15392 kPa | 1388.62 ± 0.32 | –
255 K, 21124 kPa | 1397.53 ± 0.34 | –
255 K, 24078 kPa | 1401.93 ± 0.35 | –
260 K, 6173.2 kPa | 1362.59 ± 0.31 | –
265 K, 11152 kPa | 1361.41 ± 0.31 | –
270 K, 16100 kPa | 1360.29 ± 0.31 | –
275 K, 1267.3 kPa | 1319.85 ± 0.3 | –
275 K, 4966.8 kPa | 1328.13 ± 0.3 | –
275 K, 10048 kPa | 1338.72 ± 0.3 | –
275 K, 15054 kPa | 1348.44 ± 0.31 | –
275 K, 21020 kPa | 1359.23 ± 0.31 | –
280 K, 5624.6 kPa | 1318.7 ± 0.3 | –
285 K, 9970.2 kPa | 1317.63 ± 0.3 | –
289.99 K, 80.81 kPa | – | 137.76 ± 0.024
290.01 K, 14296 kPa | 1316.62 ± 0.3 | –
290.06 K, 80.8 kPa | – | 137.77 ± 0.024
295 K, 1205.6 kPa | 1273.49 ± 0.29 | –
295 K, 5284 kPa | 1284.64 ± 0.29 | –
295 K, 10000 kPa | 1296.45 ± 0.29 | –
295 K, 14695 kPa | 1307.26 ± 0.3 | –
295 K, 18582 kPa | 1315.63 ± 0.3 | –
299.99 K, 4671.2 kPa | 1271.6 ± 0.29 | –
300 K, 4941.7 kPa | 1272.36 ± 0.29 | –
300.01 K, 79.96 kPa | – | 140.51 ± 0.024
300.01 K, 80 kPa | – | 140.52 ± 0.024
300.01 K, 113.38 kPa | – | 138.9 ± 0.025
300.02 K, 113.38 kPa | – | 138.9 ± 0.025
305 K, 8702.1 kPa | 1271.4 ± 0.29 | –
309.99 K, 12156 kPa | 1269.71 ± 0.29 | –
309.99 K, 12442 kPa | 1270.47 ± 0.29 | –
314.99 K, 8185.4 kPa | 1247.49 ± 0.28 | –
314.99 K, 16168 kPa | 1269.57 ± 0.29 | –
315 K, 1207.6 kPa | 1224.52 ± 0.28 | –
315 K, 4179.3 kPa | 1234.82 ± 0.28 | –
315 K, 11929 kPa | 1258.3 ± 0.29 | –
319.59 K, 129.53 kPa | – | 143.66 ± 0.024
319.59 K, 183.14 kPa | – | 141.46 ± 0.029
319.6 K, 129.45 kPa | – | 143.67 ± 0.027
319.6 K, 150.69 kPa | – | 142.81 ± 0.027
319.6 K, 150.7 kPa | – | 142.81 ± 0.027
319.6 K, 183.09 kPa | – | 141.46 ± 0.03
319.6 K, 183.12 kPa | – | 141.46 ± 0.03
319.61 K, 68.35 kPa | – | 146.03 ± 0.024
319.61 K, 129.45 kPa | – | 143.67 ± 0.024
319.61 K, 215.09 kPa | – | 140.12 ± 0.025
319.61 K, 215.18 kPa | – | 140.11 ± 0.028
319.61 K, 215.23 kPa | – | 140.11 ± 0.028
319.62 K, 68.35 kPa | – | 146.03 ± 0.024
319.99 K, 4450.8 kPa | 1223.61 ± 0.28 | –
319.99 K, 19560 kPa | 1267.92 ± 0.29 | –
325 K, 7686.4 kPa | 1222.74 ± 0.28 | –
330 K, 10903 kPa | 1221.9 ± 0.28 | –
335.01 K, 948 kPa | 1170.3 ± 0.27 | –
335.01 K, 4081.7 kPa | 1184.44 ± 0.27 | –

Conditions | vapor or sublimation pressure [kPa]
280.01 K | 65.1 ± 2.6
290.01 K | 96.5 ± 2.5
300 K | 139 ± 2.5
310.01 K | 194.9 ± 2.7
320.02 K | 267.1 ± 0.4
330.01 K | 357.9 ± 0.6
